Our source for the IC50 values is ChEMBL document CHEMBL4477252, “Optimization of microtubule affinity regulating kinase (MARK) inhibitors with improved physical properties” (Bioorg Med Chem Lett, 2016).

Assay [1] deals with T1, Beta-adrenergic receptor kinase 1 (Homo sapiens, UniProt P25098).
T1 sequence (P25098 whole entry): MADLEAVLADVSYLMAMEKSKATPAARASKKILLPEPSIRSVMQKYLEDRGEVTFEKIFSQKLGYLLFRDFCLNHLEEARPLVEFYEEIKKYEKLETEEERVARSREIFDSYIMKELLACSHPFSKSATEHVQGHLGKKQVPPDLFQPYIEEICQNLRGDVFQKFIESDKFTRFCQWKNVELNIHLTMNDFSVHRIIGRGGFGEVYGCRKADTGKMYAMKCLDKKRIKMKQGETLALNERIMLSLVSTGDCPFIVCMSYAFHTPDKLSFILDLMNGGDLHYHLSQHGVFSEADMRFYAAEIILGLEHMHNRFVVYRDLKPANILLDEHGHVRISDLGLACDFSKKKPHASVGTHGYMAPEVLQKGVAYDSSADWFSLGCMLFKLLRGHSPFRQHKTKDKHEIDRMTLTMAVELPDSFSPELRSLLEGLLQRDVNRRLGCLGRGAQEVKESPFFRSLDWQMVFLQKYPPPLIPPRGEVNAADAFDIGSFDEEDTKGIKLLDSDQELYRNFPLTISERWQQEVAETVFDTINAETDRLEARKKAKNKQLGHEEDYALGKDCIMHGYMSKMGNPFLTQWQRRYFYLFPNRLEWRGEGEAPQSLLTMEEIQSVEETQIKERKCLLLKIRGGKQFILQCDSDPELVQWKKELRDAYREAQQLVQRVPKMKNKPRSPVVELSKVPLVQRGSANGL
Description: Inhibition of full-length recombinant human His-tagged ADRBK1 expressed in baculovirus expression system by Z'-LYTE assay.

The target in assay [2] is RAC-beta serine/threonine-protein kinase (Homo sapiens, UniProt P31751). Nature of the assay: Inhibition of full-length recombinant human His-tagged AKT2 expressed in baculovirus expression system by Z'-LYTE assay.
Assay [3] has as its target Cyclin-dependent kinase 7 (Homo sapiens, UniProt P50613). Nature of the assay: Inhibition of full-length recombinant human His-tagged CDK7 expressed in baculovirus expression system by Adapta assay.
Assay [4] has as its target Serine/threonine-protein kinase Chk2 (Homo sapiens, UniProt O96017). Description: Inhibition of full-length recombinant human His-tagged CHEK2 expressed in baculovirus expression system by Z'-LYTE assay.
Assay [5] concerns the target Dual specificity tyrosine-phosphorylation-regulated kinase 1A (Homo sapiens, UniProt Q13627). Nature of the assay: Inhibition of full-length recombinant human GST-tagged DYRK1A expressed in baculovirus expression system by Z'-LYTE assay.
The target of assay [6] is Glycogen synthase kinase-3 beta (Homo sapiens, UniProt P49841). Description: Inhibition of full-length recombinant human His-tagged GSK3B expressed in baculovirus expression system by Z'-LYTE assay.
The target of assay [7] is Tyrosine-protein kinase HCK (Homo sapiens, UniProt P08631). Description: Inhibition of full-length human N-terminal GST-tagged HCK expressed in baculovirus expression system by Z'-LYTE assay.
In assay [8] the target is T2, Inhibitor of nuclear factor kappa-B kinase subunit beta (Homo sapiens, UniProt O14920).
T2 sequence (O14920 whole entry): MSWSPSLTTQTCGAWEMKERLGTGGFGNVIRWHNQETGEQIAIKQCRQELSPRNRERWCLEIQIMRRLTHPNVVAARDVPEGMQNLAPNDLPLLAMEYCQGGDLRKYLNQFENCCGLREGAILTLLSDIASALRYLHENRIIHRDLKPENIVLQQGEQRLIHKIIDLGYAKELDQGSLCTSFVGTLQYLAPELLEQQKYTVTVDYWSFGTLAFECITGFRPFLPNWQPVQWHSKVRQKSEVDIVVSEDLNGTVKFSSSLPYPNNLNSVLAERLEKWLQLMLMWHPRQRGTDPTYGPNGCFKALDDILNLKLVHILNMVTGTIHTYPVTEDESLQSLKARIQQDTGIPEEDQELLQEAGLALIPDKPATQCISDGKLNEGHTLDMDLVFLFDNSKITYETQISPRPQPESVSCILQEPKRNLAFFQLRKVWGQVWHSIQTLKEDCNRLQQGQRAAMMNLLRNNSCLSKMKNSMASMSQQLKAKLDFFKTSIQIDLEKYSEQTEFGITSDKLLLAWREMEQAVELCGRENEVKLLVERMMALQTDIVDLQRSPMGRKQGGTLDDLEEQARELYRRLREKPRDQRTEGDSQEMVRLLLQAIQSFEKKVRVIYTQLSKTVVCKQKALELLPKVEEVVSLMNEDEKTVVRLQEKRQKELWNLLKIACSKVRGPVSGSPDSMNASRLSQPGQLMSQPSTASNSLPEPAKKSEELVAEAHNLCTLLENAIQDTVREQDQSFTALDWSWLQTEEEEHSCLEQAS
Nature of the assay: Inhibition of full-length recombinant human GST-tagged IKK-beta expressed in baculovirus expression system by Z'-LYTE assay.

Assay [9] has as its target Interleukin-1 receptor-associated kinase 1 (Homo sapiens, UniProt P51617). Nature of the assay: Inhibition of recombinant human GST-tagged IRAK1 (194 to 712 residues) catalytic domain expressed in baculovirus expression system by Adapta assay.
Assay [10] has as its target Tyrosine-protein kinase Lck (Homo sapiens, UniProt P06239). Description: Inhibition of full-length recombinant human His-tagged LCK expressed in baculovirus expression system by Z'-LYTE assay.
In assay [11] the target is Mitogen-activated protein kinase 9 (Homo sapiens, UniProt P45984). Nature of the assay: Inhibition of full-length recombinant human His-tagged MAPK9 expressed in baculovirus expression system by Z'-LYTE assay.
For assay [12], the target named is MAP kinase-activated protein kinase 2 (Homo sapiens, UniProt P49137). Description: Inhibition of full-length recombinant human His-tagged MAPKAPK2 expressed in Escherichia coli by Z'-LYTE assay.
Assay [13] has as its target Serine/threonine-protein kinase 26 (Homo sapiens, UniProt Q9P289). Description: Inhibition of full-length recombinant human GST-tagged MST4 expressed in baculovirus expression system by Z'-LYTE assay.
The target of assay [14] is PAS domain-containing serine/threonine-protein kinase (Homo sapiens, UniProt Q96RG2). Description: Inhibition of recombinant human GST-tagged PASK catalytic domain expressed in baculovirus expression system by Z'-LYTE assay.
For assay [15], the target named is Rho-associated protein kinase 1 (Homo sapiens, UniProt Q13464). Nature of the assay: Inhibition of recombinant human GST-tagged ROCK1 catalytic domain expressed in baculovirus expression system by Z'-LYTE assay.
The target in assay [16] is Tyrosine-protein kinase SYK (Homo sapiens, UniProt P43405). Nature of the assay: Inhibition of full-length recombinant human N-terminal GST-tagged cytoplasmic SYK expressed in baculovirus expression system by Z'-LYTE assay.
The target in assay [17] is Non-receptor tyrosine-protein kinase TYK2 (Homo sapiens, UniProt P29597). Nature of the assay: Inhibition of recombinant human N-terminal GST-tagged cytoplasmic TYK2 (833 to 1187 residues) catalytic domain expressed in baculovirus expression system by Z'-LYTE assay.

PAS domain-containing serine/threonine-protein kinase, sequence (Q96RG2 whole entry, the tested form may be a part): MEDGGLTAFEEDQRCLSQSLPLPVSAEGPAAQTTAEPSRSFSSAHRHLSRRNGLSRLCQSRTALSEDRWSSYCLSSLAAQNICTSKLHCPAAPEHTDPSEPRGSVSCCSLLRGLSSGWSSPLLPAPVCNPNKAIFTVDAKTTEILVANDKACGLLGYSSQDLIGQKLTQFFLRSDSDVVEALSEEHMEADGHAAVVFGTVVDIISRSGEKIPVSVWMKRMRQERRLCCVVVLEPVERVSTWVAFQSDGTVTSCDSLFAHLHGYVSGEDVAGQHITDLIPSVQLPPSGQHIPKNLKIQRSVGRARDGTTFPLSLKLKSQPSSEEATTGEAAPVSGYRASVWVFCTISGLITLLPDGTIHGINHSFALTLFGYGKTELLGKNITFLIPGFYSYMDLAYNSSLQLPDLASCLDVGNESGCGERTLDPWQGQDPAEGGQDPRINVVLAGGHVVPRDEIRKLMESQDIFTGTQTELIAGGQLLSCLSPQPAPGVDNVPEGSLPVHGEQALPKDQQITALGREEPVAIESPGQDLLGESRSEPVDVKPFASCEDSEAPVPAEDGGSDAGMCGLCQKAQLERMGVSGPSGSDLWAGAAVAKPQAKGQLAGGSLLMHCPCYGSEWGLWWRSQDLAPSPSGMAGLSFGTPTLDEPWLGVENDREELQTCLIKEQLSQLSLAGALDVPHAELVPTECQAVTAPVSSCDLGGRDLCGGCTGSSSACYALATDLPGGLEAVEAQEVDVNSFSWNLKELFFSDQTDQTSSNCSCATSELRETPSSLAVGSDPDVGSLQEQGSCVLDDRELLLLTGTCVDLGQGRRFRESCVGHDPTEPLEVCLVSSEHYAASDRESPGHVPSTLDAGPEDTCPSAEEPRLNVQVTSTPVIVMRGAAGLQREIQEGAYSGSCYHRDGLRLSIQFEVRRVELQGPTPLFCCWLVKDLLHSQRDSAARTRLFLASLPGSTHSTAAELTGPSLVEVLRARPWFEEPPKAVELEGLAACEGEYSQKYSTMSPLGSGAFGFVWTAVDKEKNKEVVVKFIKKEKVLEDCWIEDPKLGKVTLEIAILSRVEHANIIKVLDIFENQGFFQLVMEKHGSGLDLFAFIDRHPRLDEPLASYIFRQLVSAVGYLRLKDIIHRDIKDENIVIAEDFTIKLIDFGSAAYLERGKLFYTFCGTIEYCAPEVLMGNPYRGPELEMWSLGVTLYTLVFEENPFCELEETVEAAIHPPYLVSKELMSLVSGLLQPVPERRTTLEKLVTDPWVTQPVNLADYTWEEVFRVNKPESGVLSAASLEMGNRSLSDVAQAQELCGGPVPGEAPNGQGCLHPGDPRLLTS
RAC-beta serine/threonine-protein kinase, sequence (P31751 whole entry): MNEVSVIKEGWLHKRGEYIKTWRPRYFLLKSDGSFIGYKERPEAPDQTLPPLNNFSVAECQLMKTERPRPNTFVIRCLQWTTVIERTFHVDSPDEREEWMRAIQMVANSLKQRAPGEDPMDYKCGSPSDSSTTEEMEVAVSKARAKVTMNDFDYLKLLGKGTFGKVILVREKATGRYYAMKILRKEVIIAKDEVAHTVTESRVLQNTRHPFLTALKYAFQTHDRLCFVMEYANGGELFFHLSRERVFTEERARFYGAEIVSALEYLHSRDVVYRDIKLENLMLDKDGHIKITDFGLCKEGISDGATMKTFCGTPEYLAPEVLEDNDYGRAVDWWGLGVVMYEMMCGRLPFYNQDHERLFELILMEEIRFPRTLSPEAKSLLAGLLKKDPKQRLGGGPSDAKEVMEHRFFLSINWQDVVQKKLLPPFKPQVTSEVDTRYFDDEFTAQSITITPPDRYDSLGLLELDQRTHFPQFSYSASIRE
Mitogen-activated protein kinase 9, sequence (P45984 whole entry): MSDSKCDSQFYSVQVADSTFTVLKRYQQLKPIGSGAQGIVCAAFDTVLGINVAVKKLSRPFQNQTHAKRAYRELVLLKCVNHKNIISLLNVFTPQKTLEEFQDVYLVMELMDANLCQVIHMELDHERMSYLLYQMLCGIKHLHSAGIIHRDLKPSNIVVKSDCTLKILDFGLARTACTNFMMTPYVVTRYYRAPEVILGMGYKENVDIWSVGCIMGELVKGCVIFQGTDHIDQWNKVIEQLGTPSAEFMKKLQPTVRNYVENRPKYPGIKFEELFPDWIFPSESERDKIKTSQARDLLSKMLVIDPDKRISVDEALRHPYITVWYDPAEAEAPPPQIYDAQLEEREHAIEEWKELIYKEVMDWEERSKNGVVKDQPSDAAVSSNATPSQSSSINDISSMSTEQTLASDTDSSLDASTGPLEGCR
Rho-associated protein kinase 1, sequence (Q13464 whole entry, the tested form may be a part): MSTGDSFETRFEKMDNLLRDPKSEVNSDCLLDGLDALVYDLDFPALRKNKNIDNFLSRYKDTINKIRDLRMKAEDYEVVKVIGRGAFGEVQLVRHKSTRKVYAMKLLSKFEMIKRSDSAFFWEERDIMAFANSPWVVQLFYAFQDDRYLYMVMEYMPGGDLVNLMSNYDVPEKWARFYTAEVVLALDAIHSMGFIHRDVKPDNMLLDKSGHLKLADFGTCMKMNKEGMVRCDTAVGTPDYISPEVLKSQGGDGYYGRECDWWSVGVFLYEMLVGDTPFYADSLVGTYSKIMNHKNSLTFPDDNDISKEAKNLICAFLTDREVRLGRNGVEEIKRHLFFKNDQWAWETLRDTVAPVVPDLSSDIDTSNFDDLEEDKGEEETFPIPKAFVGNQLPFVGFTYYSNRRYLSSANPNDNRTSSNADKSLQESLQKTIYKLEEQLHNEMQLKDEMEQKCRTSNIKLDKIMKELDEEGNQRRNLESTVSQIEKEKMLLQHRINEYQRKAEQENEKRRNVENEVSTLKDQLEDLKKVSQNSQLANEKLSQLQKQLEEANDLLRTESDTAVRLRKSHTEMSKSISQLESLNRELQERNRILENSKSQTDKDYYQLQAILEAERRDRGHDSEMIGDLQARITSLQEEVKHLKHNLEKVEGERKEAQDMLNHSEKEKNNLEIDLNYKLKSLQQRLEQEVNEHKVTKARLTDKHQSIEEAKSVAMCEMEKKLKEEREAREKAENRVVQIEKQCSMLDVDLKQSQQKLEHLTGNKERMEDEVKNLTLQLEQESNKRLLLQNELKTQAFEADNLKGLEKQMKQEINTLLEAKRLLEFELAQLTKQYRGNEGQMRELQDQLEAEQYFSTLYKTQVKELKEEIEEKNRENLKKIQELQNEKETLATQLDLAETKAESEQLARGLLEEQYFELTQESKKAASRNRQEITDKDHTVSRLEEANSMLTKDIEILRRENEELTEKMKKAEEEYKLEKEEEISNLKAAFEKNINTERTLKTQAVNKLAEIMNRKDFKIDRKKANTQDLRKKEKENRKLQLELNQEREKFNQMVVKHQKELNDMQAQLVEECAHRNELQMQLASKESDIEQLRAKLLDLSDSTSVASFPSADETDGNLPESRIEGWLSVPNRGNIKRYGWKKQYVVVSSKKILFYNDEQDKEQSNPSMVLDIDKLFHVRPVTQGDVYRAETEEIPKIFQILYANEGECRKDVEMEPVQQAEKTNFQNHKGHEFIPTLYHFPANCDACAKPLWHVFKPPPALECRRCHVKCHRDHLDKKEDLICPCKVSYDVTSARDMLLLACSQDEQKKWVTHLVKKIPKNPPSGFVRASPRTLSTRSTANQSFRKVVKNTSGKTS
Serine/threonine-protein kinase 26, sequence (Q9P289 whole entry, the tested form may be a part): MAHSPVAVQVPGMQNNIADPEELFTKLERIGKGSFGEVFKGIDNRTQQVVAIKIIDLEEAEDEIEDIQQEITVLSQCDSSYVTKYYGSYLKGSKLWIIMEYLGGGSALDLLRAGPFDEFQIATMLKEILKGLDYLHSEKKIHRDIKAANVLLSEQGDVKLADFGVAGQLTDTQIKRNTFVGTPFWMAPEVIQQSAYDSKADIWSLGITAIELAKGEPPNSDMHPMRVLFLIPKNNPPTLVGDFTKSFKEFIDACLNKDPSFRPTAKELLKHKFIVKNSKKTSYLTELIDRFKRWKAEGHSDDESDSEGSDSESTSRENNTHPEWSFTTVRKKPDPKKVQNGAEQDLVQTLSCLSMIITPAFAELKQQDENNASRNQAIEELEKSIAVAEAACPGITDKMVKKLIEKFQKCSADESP
MAP kinase-activated protein kinase 2, sequence (P49137 whole entry): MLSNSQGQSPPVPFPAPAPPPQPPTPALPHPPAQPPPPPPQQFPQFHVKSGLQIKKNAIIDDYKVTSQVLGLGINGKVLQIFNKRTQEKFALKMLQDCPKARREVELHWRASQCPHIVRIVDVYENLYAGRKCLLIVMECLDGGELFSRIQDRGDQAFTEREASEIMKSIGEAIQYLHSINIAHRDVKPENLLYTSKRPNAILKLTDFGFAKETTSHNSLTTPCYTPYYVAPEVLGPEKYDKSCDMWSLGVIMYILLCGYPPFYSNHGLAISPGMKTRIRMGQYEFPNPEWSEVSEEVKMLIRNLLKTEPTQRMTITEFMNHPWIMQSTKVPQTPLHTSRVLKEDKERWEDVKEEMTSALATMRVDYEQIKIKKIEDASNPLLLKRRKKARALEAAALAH
Glycogen synthase kinase-3 beta, sequence (P49841 whole entry): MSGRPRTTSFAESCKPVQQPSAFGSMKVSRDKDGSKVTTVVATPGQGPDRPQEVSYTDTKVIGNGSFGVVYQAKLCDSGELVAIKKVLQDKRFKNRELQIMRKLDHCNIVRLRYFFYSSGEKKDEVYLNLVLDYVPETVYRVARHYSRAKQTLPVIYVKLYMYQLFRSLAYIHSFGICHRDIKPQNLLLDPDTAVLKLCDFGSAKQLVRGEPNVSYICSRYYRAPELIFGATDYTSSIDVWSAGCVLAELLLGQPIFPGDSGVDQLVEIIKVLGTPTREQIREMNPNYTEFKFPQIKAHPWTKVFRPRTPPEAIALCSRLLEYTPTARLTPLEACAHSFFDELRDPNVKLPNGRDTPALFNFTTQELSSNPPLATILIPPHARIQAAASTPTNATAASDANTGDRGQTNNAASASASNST

What is called IC50 is the point on the concentration scale where inhibition reaches its midpoint. As for `Cn1cc(-c2cnc3c(-c4csc(C(=O)NCC(F)(F)F)c4)cnn3c2)cn1`, the IC50 is 23000 nM in assay [1]; > 100000 nM in [2]; 53 nM in [3]; 420 nM in assay [4]; 11 nM in assay [5]; 84 nM in [6]. For the same compound, the IC50 in [7] is 33 nM; in assay [8] it was > 100000 nM; in assay [9], 19 nM; in [10], 37 nM; in assay [11] it was 1700 nM; in [12], > 100000 nM. The IC50 in assay [13] is 290 nM; in assay [14], > 100000 nM; in assay [15], 780 nM; in assay [16], 750 nM; in assay [17] it was 92 nM.
Turning to `Cc1sc(C(=O)N[C@@H]2[C@H](N)CCCC2(F)F)cc1-c1cnn2cc(Cl)cnc12`, the IC50 was 11000 nM in [1]; 2500 nM in [2]; < 10 nM in [3]; 390 nM in [4]; 130 nM in [5]; 150 nM in assay [6]. In addition, the half-inhibitory concentration (IC50) in [7] is 6400 nM; in [8], 31000 nM; in [9], 1900 nM; in assay [10], 5000 nM; in [11], 4400 nM; in assay [12] it was 7800 nM. Moreover, the IC50 turned out to be 170 nM in [13]; 1400 nM in assay [14]; 2300 nM in assay [15]; 12000 nM in assay [16]; 10000 nM in assay [17].
For the compound `O=C(NCC(F)(F)F)c1cc(-c2cnn3cc(-c4ccc(OCCN5CCCCC5)cc4)cnc23)cs1`, the IC50 was 610 nM in assay [1]; 23000 nM in assay [2]; 30 nM in assay [3]; 450 nM in [4]; < 10 nM in [5]; 220 nM in [6]. Besides, the IC50 in [7] was 30 nM; in assay [8], 55000 nM; in assay [9] it was < 10 nM; in assay [10], 19 nM; in assay [11], 850 nM; in assay [12], 55000 nM. For the same compound, the IC50 in assay [13] came out at 1100 nM; in [14] it was 37000 nM; in assay [15], 360 nM; in assay [16], 440 nM; in assay [17], 75 nM.
With `Cn1cc(-c2cnc3c(-c4csc(C(=O)N[C@@H]5CCCC[C@@H]5N)c4)cnn3c2)cn1` (racemic), the IC50 in assay [1] was found to be 160 nM; in assay [2], 430 nM; in assay [3] it was 4.1 nM; in assay [4], 24 nM; in assay [5] it was 3.2 nM; in [6], 23 nM. Also, the IC50 was 2.8 nM in assay [7]; > 10000 nM in assay [8]; 9 nM in assay [9]; 3.9 nM in assay [10]; 640 nM in assay [11]; 390 nM in [12]. Moreover, the IC50 in assay [13] is 6.3 nM; in assay [14] it was 1500 nM; in [15] it was 17 nM; in assay [16] it was 42 nM; in assay [17], 52 nM.
